Source: US10849906B2, “Use of Akt2 in diagnosis and treatment of tumor” (priority 2015, dated 2020)

How the values were obtained:
[1] = tested on: Akt/FoxO3a/Bim signaling pathway in CCRF-CEM cells; assay: Western blot of Akt/FoxO3a/Bim signaling pathway proteins in CCRF-CEM cells; format: cell-based, human; details: for expression of p-Akt1 / expression of p-Akt2: CCRF-CEM, inhibitors 0.8 μM, FIG. 5A
Protocol: (§1) The control group was not added with any reagents. All experiments were performed in triplicate.
Protein detection by Western blot: in the examples of the present invention, Akt antibody (rabbit derived), phosphorylated Akt antibody (rabbit derived), FoxO3a antibody (rabbit derived), phosphorylated FoxO3a antibody (rabbit derived) and GAPDH antibody (rabbit derived) and secondary antibodies were all purchased from CST company. The cells were collected in a centrifuge tube and centrifuged at 1000 rpm, the supernatant was discarded and the cells were washed twice with PBS pre-cold at 4° C.; cell lysis buffer (150 mM NaCl, 1% NP-40, 0.1% SDS, 2 μg/ml Aprotinin, 2 μg/ml Leupeptin, 1 mM PMSF, 1.5 mM EDTA, 1 mM sodium vanadate) was added and the cells were lysed on ice for 40 minutes, the cell lysate was centrifuged at 20000 rpm, 4° C. for 15 minutes, and the supernatant was collected; a protein loading buffer for sodium dodecyl sulfate polyacrylamide (SDS-PAGE) gel electrophoresis (1.25 mL 1MTris-HCl (pH6.8), 0.5 g SDS, 25 mg BPB, 2.5 mL glycerol, 5 mL deionized water) was added, followed by boiling for 5 minutes to denature proteins; the loading buffer containing denatured proteins was applied to 10% SDS-PAGE for electrophoresis at 120 V, and then transferred to a PVDF membrane (Sangon Biotech (Shanghai) Co., Ltd.) at 130 V for 1.5 hours; after the membrane transfer was completed, the PVDF membrane was immediately rinsed with a Western washing solution (150 mmol/L NaCl, 50 mmol/L Tris-HCl (pH 7.5)) for 1-2 minutes; added with 5% non-fat milk powder (Shanghai Biotechnology Co., Ltd.), agitated gently and then blocked at room temperature for 60 minutes; a primary antibody diluted appropriately with 5% non-fat milk powder was added, and incubated overnight at room temperature with gentle agitating; the primary antibody was recovered and the membrane was washed three times with the washing solution for 5-10 minutes each; a horseradish peroxidase-labeled secondary antibody diluted appropriately with the Western washing solution was added, and incubated at room temperature for 1 hour with gentle agitating; the secondary antibody was recovered and the membrane was washed three times with the Western washing solution for 5-10 minutes each. An appropriate amount of developing solution (DAB 4 mg, 30% hydrogen peroxide 15 μL, 0.01 M Tris-Cl (pH 7.5) 5 mL) was dropped on the PVDF membrane, the image was detected using a bioluminescence image colorimeter and a gel imaging system (Thermo company), and the quantitative analysis of bands was performed using Image Lab software.
(§2) The cells were cultured in RPMI 1640 complete medium (Gibco company) containing 10% fetal bovine serum (FBS, Gibco company) in an incubator (Thermo company) at 5% CO2 and 37° C. until reaching logarithmic growth phase, then different concentrations of inhibitors and/or dexamethasone/ethanol/DMSO were added to the culture medium, followed by further culturing (for addition of dexamethasone/ethanol/DMSO, for 48 hours, and for addition of inhibitor, for 24 hours), and apoptosis was detected by Annexin V-FITC PI double staining and proteins were detected by Western blot, as described in Example 1.
Methods: CCRF-CEM cells were cultured in RPMI 1640 complete medium (Gibco company) containing 10% fetal bovine serum (FBS, Gibco company) in an incubator (Thermo company) at 5% CO2 and 37° C. until reaching logarithmic growth phase, then DMSO, dexamethasone and different inhibitors (DMSO: 0.1%, dexamethasone: 0.1 μM, inhibitors: 0.8 μM) were added to the culture medium, and further cultured (for addition of dexamethasone or DMSO, for 48 hours, and for addition of inhibitors, for 24 hours), and the proteins were detected by Western blot, as described in Example 1.

CCRF-CEM cells = assay: Apoptosis by Annexin V-FITC PI double staining (flow cytometry), CCRF-CEM; format: cell-based, human; details: compared to dexamethasone alone; FIG. 2A: Akt inhibitor 1 μM, dexamethasone 1 μM, LY294002 30 μM; FIG. 2G, 2J, 2K
Protocol: as §1
(§3) Apoptosis was detected by Annexin V-FITC PI double staining method (flow cytometry kit (FITC, PI double staining), Sangon Biotech (Shanghai) Co., Ltd.)), and the collected cells were washed once with phosphate buffered saline (PBS) (135 mM NaCl, 2.7 mM KCl, 1.5 mM KH2PO4 and 8 mM K2HPO4, pH 7.2); the 4× binding buffer was diluted to a 1× binding buffer with deionized water, then the cells were resuspended with 195 ul of the 1× binding buffer at a cell density of 2-5×10^5/ml; 5 μl of Annexin V-FITC was added to the 195 μl of the cell resuspension and mixed, and incubated in dark at room temperature for 10 minutes; the cells were washed once with 200 μl of the 1× binding buffer, and then resuspended in 190 μl of the 1× binding buffer; 10 μl of propidium iodide (20 μg/ml) was added. A flow cytometry device (Beckman company) was used for detection, and the rate of apoptosis was analyzed using Summit software.
as §2
(§4) As described in Example 3, the cells were cultured in RPMI 1640 complete medium containing 10% fetal bovine serum under 5% CO2 and 37° C. until reaching logarithmic growth phase, and then dexamethasone and different concentrations of Akt inhibitor were added to the culture medium, followed by further culture (for addition of dexamethasone/DMSO, for 48 hours, and for addition of the inhibitor, for 24 hours), the apoptosis was detected by Annexin V-FITC PI double staining method and proteins were detected by Western blot as described in Example 1 as well as the cell viability was detected by CCK-8 method.

[2] = tested on: L-02 human-derived healthy liver cell line; assay: CCK-8 viability of healthy liver cells L-02; details: FIG. 6A; for damage to liver cells: DEX 0.1 μM, inhibitors 0.8 μM
[3] = tested on: Akt/FoxO3a/Bim proteins in L-02 cells; assay: Western blot of Akt/FoxO3a/Bim proteins in L-02 cells; format: cell-based, human; details: pretreated with inhibitor 0.8 μM; FIG. 6B
Protocol: Protein detection by Western blot: in the examples of the present invention, Akt antibody (rabbit derived), phosphorylated Akt antibody (rabbit derived), FoxO3a antibody (rabbit derived), phosphorylated FoxO3a antibody (rabbit derived) and GAPDH antibody (rabbit derived) and secondary antibodies were all purchased from CST company. […] An appropriate amount of developing solution (DAB 4 mg, 30% hydrogen peroxide 15 μL, 0.01 M Tris-Cl (pH 7.5) 5 mL) was dropped on the PVDF membrane, the image was detected using a bioluminescence image colorimeter and a gel imaging system (Thermo company), and the quantitative analysis of bands was performed using Image Lab software.

Daudi cells [4] = assay: Apoptosis by Annexin V-FITC PI double staining, Daudi; format: cell-based, human; details: compared to the dexamethasone group; FIG. 2K, 4L
Protocol: as §3
as §2, with “1. […]” for “1.”

Jurkat cells = assay: Apoptosis by Annexin V-FITC PI double staining, Jurkat; format: cell-based, human; details: compared to the only/single dexamethasone group; FIG. 2F, 4J
Protocol: as §3, §2, §4
The transfected cells were selected and passaged for 3 to 5 passages after resuscitation, with Interferin™ as transfection reagent, and the transfection procedure was performed in accordance with the instruction of the transfection reagent. In short, the cells of logarithmic growth phase were plated at 2×10^5/well, the cells were replaced with fresh complete medium (free of antibiotics) during transfection, siRNA was diluted with Opti-MEM and added with an appropriate amount of […]in™ and mixed, incubated at room temperature for 10 minutes prior to being added dropwise to the cells, and the cells were harvested at appropriate time. The cells were transfected with green fluorescein-labeled siRNA (FAM-siRNA) (siRNA at a final concentration of 20 μM, 1.25 μl/well), and the transfection efficiency was observed using a fluorescence microscope 24 hours later. The dexamethasone group was added 24 hours after transfection, followed by culture for further 24 hours, and then the cells were collected for observation; and the equal amount of anhydrous ethanol was added to the control group.

Daudi cells [5] = assay: Cell viability by CCK-8 and combination index, Daudi; format: cell-based, human; details: B lymphoma cells; as shown in Table 1
Protocol: as §4
The inhibitory effect of two drugs (dexamethasone and an inhibitor) alone and in combination on various lymphocyte lines was observed by CCK-8 method (CCK-8 kit), and then the half-inhibitory concentration of each drug was calculated using the median effect equation, and the combination index (CI) of the two drugs used in combination was calculated using CompuSyn software.
(1) the lymphocytes of logarithmic growth phase were taken and made to a cell suspension of 5×10^4/mL, a blank control group (5 wells), a dexamethasone group (3 wells for each concentration, triplicates), a single inhibitor group (3 wells for each concentration, triplicates), a dexamethasone plus inhibitor group (3 wells for each combined concentration, triplicates) were prepared, 180 μL of the suspension was seeded to each well of a 96-well plate, and incubated for 24 hours in an incubator at 5% CO2 and 37° C.
Based on the drug resistance of cells, the ratio of two drugs was fixed. The dexamethasone group was cultured for 48 hours while the inhibitor group was cultured for 24 hours.
(3) 10 μl of CCK-8 was added to each well, and cultured for 2 hours, and the optical density (OD) was measured at 450 nm using an automatic microplate reader, and the proliferation inhibition rate of the drug on cell was calculated.
(4) the proliferation inhibition rate was calculated according to the following equation: cell proliferation inhibition rate=(1-average OD value in the test group/average OD value in the control group)×100%, and the effect of interaction between the two drugs was analyzed by Chou-Talalay combination index method.

[6] = Toxicity in tumor-bearing nude mice (peripheral blood test, organ pathology)

In the case of `OCC1OC(O)CC(O)C1O` (stereo not drawn) [2-DG], the “total FoxO3a expression, inhibitor plus dexamethasone” value ([1]; compared to dexamethasone alone, FIG. 2H) is reported as “increased”, the “expression of pro-apoptosis factor Bim, inhibitor plus dexamethasone” value ([1]; compared to the only dexamethasone group, FIG. 2B, 2H) is reported as “significantly up-regulated” and the “expression of phosphorylated FoxO3a, inhibitor plus dexamethasone” value ([1]; compared to the only dexamethasone group, FIG. 2B, 2H, 2I) is reported as “decreased”. For the same compound, the “apoptosis of CCRF-CEM cells induced by dexamethasone, inhibitor plus dexamethasone” value (CCRF-CEM cells) was “significantly increased”.

With `Cc1[nH]nc2ccc(-c3cncc(OC[C@@H](N)Cc4ccccc4)c3)cc12` [A-674563] the “damage to liver cells” value [2] was “most serious damage”, the “recovery of liver cell activity” value [2] was “did not recover within 48-hour” and the “expressions of p-Akt1 and p-Akt2 in L-02 cells” value [3] was “correspondingly increased”. The “expression of p-Akt1” value [1] was “effectively inhibited”, the “expression of p-Akt2” value [1] was “compensatory increase” and the “apoptosis of Daudi cells, inhibitor in combination with dexamethasone” value (Daudi cells [4]) was “significantly increase”. For the same compound, the “apoptosis of Jurkat cells, inhibitor in combination with dexamethasone” value (Jurkat cells) was “significantly increase”, the “effect of inhibitor in combination with dexamethasone in B lymphoma cells (in words)” value (Daudi cells [5]) was “low degree of synergistic effect” and the “liver pathology (HE staining)” value ([6]; 7-day administration, FIG. 8A, 8B) was “did not cause morphological changes of the liver tissues”. For the same compound, the “level of TBIL” value ([6]; compared to the NC group, FIG. 6I) was “significantly increased” and the “level of peripheral blood AST” value ([6]; compared to the normal saline group (NC), FIG. 3F, 6H) was “significantly increased”.

In the case of `NC1(Cc2ccc(Cl)cc2)CCN(c2ncnc3[nH]ccc23)CC1` [CCT128930], the “damage to liver cells” value [2] is reported as “least damage”, the “recovery of liver cell activity” value [2] is reported as “gradually recovered after 6 hours of administration” and the liver cell activity ([2]; after six hours of administration) is reported as 56.1%. For the same compound, the “expressions of p-Akt1 and p-Akt2 in L-02 cells” value [3] was “correspondingly increased”, the “expression of p-Akt1” value [1] was “increased” and the “expression of p-Akt2” value [1] was “increased”. The “apoptosis of Daudi cells, inhibitor in combination with dexamethasone” value (Daudi cells [4]) was “significantly increase”, the “apoptosis of Jurkat cells, inhibitor in combination with dexamethasone” value (Jurkat cells) was “significantly increase” and the “effect of inhibitor in combination with dexamethasone in B lymphoma cells (in words)” value (Daudi cells [5]) was “additive effect”.
